Legend:
[1] = biological target: T1, GSK3B (Homo sapiens, UniProt P49841); test: Kinome screen, GSK3B; assay type: binding; conditions: screened at 1 μM
T1 construct: made in house; host or cells: E. coli BL21-derived host (T7 phage) or HEK-293 cells
Procedure: Compounds 1 and C-1 were screened against other kinases to evaluate their selectivity profile.
Kinase-tagged T7 phage strains were grown in parallel in 24-well blocks in an E. coli host derived from the BL21 strain. E. coli were grown to log-phase and infected with T7 phage from a frozen stock (multiplicity of infection=0.4) and incubated with shaking at 32° C. until lysis (90-150 minutes). The lysates were centrifuged (6,000×g) and filtered (0.2 μm) to remove cell debris. The remaining kinases were produced in HEK-293 cells and subsequently tagged with DNA for qPCR detection.
Streptavidin-coated magnetic beads were treated with biotinylated small molecule ligands for 30 minutes at room temperature to generate affinity resins for kinase assays. The liganded beads were blocked with excess biotin and washed with blocking buffer (SeaBlock (Pierce), 1% BSA, 0.05% Tween 20, 1 mM DTT) to remove unbound ligand and to reduce non-specific phage binding. Binding reactions were assembled by combining kinases, liganded affinity beads, and test compounds in 1× binding buffer (20% SeaBlock, 0.17×PBS, 0.05% Tween 20, 6 mM DTT). Test compounds were prepared as 40× stocks in 100% DMSO and directly diluted into the assay. All reactions were performed in polypropylene 384-well plates in a final volume of 0.04 ml. […] The kinase concentration in the eluates was measured by qPCR. […]

[2] = test system: IL-6 trans-signaling (IL6+sIL6Rα)-induced STAT3 phosphorylation in HRMECs; test: Inhibition of IL-6 trans-signaling stimulated p-STAT3 in primary human retinal microvascular endothelial cells; assay type: cell-based; conditions: HRMEC, 500 pM IL-6, 5 nM sIL6Rα, three independent experiments, read-out: pIC50, inhibition of IL-6 trans-signaling stimulated p-STAT3 (converted)
Procedure: The cellular potency of the test compound toward inhibition of IL-6 trans-signaling (IL6+sIL6Rα)-induced STAT3 phosphorylation was measured in primary human retinal microvascular endothelial cells (HRMECs). IL-6 trans-signaling is mediated by IL-6 receptor beta (gp130), which is intracellularly coupled to JAK enzymes. Following gp130 engagement and dimerization, JAKs are activated and directly phosphorylate STAT3. Thus, this assay provides a measure of JAK cellular potency. HRMECs (Cell Systems, Kirkland Wash.) were plated in sterile, tissue culture treated, flat-bottom 96-well assay plates coated with Attachment Factor™ (Cell Systems, Kirkland Wash.) at a density of 1×10^4 cells per well. HRMEC cultures were grown for 3 days at 37° C., 95% humidity, 5% CO2 in culture media supplemented with 10% fetal bovine serum, Culture Boost™ growth factors, and BacOff® antibiotic (Cell Systems, Kirkland Wash.). […] To determine the inhibitory potency of the test compound, levels of p-STAT3 were measured using AlphaLISA® SureFire® Ultra™ p-STAT3 (Tyr705) assay kit (PerkinElmer) according to manufacturer's instructions. IC50 values were determined from inhibition curves of % p-STAT3 Alpha Signal vs test compound concentration (curve fitting conducted with GraphPad Prism 7.0). Data are expressed as pIC50 (negative log10(test compound concentration)).

[3] = biological target: T2, Tyk2 (Homo sapiens, UniProt P29597); test: Biochemical JAK kinase assay (LanthaScreen), Tyk2; conditions: converted from pIC50 by Cheng-Prusoff; 10 μM ATP; read-out: Tyk 2 pKi (converted)
T2 construct: GST; purchased Life Technologies
Procedure: A panel of four LanthaScreen JAK biochemical assays (JAK1, 2, 3 and Tyk2) were carried in a common kinase reaction buffer (50 mM HEPES, pH 7.5, 0.01% Brij-35, 10 mM MgCl2, and 1 mM EGTA). Recombinant GST-tagged JAK enzymes and a GFP-tagged STAT1 peptide substrate were obtained from Life Technologies.
Serially diluted compound was pre-incubated with each of the four JAK enzymes and the substrate in white 384-well microplates (Corning) at ambient temperature for 1 h. ATP was subsequently added to initiate the kinase reactions in 10 μL total volume, with 1% DMSO. […] The plates were allowed to incubate at ambient temperature for 1 h before being read on the EnVision reader (Perkin Elmer). Emission ratio signals (520 nm/495 nm) were recorded and utilized to calculate the percent inhibition values based on DMSO and background controls.
For dose-response analysis, percent inhibition data were plotted vs. compound concentrations, and IC50 values were determined from a 4-parameter robust fit model with the Prism software (GraphPad Software). Results were expressed as pIC50 (negative logarithm of IC50) and subsequently converted to pKi (negative logarithm of dissociation constant, Ki) using the Cheng-Prusoff equation.

T2 sequence (P29597 whole entry): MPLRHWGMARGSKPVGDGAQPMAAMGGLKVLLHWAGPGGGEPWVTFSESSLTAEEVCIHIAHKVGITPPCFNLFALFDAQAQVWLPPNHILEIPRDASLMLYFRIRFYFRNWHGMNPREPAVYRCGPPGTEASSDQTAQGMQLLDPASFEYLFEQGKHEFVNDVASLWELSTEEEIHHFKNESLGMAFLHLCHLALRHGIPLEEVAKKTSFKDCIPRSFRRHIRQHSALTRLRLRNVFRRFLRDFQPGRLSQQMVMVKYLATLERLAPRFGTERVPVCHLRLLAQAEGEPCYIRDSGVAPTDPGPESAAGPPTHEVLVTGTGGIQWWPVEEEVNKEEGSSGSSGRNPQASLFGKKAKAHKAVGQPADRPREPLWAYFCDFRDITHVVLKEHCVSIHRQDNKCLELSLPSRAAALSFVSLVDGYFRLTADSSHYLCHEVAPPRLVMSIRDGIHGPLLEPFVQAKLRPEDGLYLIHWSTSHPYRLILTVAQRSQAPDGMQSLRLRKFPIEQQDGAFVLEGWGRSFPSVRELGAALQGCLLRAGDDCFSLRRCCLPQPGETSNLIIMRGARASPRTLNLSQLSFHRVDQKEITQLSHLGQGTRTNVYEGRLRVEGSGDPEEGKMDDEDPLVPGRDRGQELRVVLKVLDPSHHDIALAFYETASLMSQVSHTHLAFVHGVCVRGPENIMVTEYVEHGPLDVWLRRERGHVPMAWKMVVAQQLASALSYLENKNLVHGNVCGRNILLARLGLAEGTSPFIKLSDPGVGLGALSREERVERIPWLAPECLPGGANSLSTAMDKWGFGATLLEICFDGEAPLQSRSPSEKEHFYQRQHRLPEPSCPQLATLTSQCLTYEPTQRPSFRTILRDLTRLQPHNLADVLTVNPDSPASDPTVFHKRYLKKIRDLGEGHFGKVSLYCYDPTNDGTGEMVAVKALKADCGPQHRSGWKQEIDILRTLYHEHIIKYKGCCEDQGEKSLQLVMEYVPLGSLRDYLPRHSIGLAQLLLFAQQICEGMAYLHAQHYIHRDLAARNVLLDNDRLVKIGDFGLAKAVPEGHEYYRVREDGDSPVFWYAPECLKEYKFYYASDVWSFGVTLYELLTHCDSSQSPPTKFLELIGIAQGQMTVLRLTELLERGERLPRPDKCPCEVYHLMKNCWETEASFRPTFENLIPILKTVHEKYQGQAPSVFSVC
T1 sequence (P49841 whole entry): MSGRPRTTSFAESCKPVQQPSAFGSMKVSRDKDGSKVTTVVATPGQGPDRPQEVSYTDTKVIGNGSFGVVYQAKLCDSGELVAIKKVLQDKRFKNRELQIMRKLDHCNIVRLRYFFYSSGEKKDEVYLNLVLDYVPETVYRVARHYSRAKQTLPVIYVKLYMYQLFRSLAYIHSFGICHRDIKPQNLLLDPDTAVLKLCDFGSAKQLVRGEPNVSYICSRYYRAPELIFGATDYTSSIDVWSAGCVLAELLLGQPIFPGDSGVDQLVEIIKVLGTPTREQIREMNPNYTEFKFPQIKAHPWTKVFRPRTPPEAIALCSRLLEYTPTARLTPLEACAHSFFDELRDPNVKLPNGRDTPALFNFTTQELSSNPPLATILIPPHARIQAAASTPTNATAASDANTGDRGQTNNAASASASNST

## CCc1cc(O)c(F)cc1-c1cc(F)c2c(-c3nc4c([nH]3)CCN(C(=O)[C@]35C[C@H]3CCN5)C4)n[nH]c2c1 [Compound 1, (1S,5R)-2-azabicyclo[3.1.0]hexan-1-yl(2-(6-(2-ethyl-5-fluoro-4-hydroxyphenyl)-4-fluoro-1H-indazol-3-yl)-6,7-dihydro-3H-imidazo[4,5-c]pyridin-5(4H)-yl)methanone]
[1]
  inhibition at 1 µM: 32%
[2]
  IC50: 501 nM
[3]
  Ki: 2.51 nM
